Peptide text beside a SMILES is read from it. * marks the point of attachment. Stearoyl = CCCCCCCCCCCCCCCCCC(=O)*
Tested on: plasmid DNA
Test: Dye exclusion assay (SYBR Gold) of DNA condensation by lipopeptide
Type: physicochemical
Conditions: charge ratio 2.5:1; n=3, p<0.05; data not shown
Protocol: To determine the charge ratio at which the LP effectively condenses the DNA, a dye exclusion assay was carried out. In a 96-well black-bottomed plate, plasmid DNA (20 μg/mL) was prepared in 12 mM Tris-HCl (pH 7.4) buffer. To each well containing DNA, 0.05 μL of 10,000× concentrated stock of intercalating SYBR® Gold (Thermo Fisher Scientific) was added and the plate was incubated at room temperature for 15 minutes. The LP was then added to the wells at a series of charge ratios from 0.5:1 to 5:1. A well containing 20 μg/mL of naked DNA and SYBR® Gold was used as a 100% fluorescence intensity standard (ie no LP added). A blank well containing only the SYBR® Gold in buffer was used to subtract from the fluorescent readings of each sample. The plate was incubated at room temperature for 30 minutes for particle formation. The fluorescence (excitation 492 nm, emission 540 nm) of each sample was measured using a Wallac Envision 2102 Multilabel Reader (PerkinElmer, Waltham, Mass., United States of America).

In the case of CCCCCCCCCCCCCCCCCC(=O)NC(CS)C(=O)NC(Cc1cnc[nH]1)C(=O)NC(Cc1cnc[nH]1)C(=O)NC(CCCCN)C(=O)NC(CCCCN)C(=O)NC(CCCCN)C(=O)O (stereo not drawn) [stearoyl-CH2K3, stearoyl-Cys-His-His-Lys-Lys-Lys] (Stearoyl-CHHKKK-OH; configuration not given here), the “Fluorescence of LP/DNA particles after addition of dithiothreitol (DTT) to the LP before complexation” value is reported as “significantly increased the degree of fluorescence”.

From patent publication US11446393B2, “Non-viral gene delivery agent comprising lipopeptide (LP) compounds” (MONASH UNIVERSITY, priority 2017, dated 2022)
